Assay results taken from paper PMC10224004, “Modulation of Distribution and Diffusion through the Lipophilic Membrane with Cyclodextrins Exemplified by a Model Pyridinecarboxamide Derivative” (Pharmaceutics, 2023).
Like-named read-outs stand apart in the source and are kept apart here.

Columns and labels:
[1] = Shake-flask solubility in 1-octanol and dissolution thermodynamics; assay type: physicochemical; conditions: for solubility higher in 1-octanol than in n-hexane: 310.2 K, ratio of molar solubilities
Procedure: (§1) The solubility of the investigated drugs in 1-octanol and n-hexane was determined by the shake-flask technique. To this end, the glass vials containing the solutions with the excess amount of the compound were placed in an air thermostat and stirred at a predetermined temperature for no less than 24 h (equilibrium state). After this, the suspensions were left for 5 h or more to precipitate the undissolved drug and centrifuged (Biofuge pico, Thermo Electron LED GmbH, Langenselbold, Germany) at a predetermined temperature during 20 min (10,000 rpm). The aliquots of the clear solutions were taken and examined via a spectrophotometer (Cary-50 Varian, Palo Alto, CA, USA, Software Version 3.00 (339)). The molar concentrations of the compounds in the solvents were calculated using calibration curves at the appropriate wavelength characteristic for each substance. The experimental results were reported as an average of at least three replicated experiments with an accuracy of 2–4%. In order to evaluate the thermodynamic parameters of the IPN dissolution in 1-octanol and n-hexane, the molar solubility ( S2 ) was recalculated to the mole fraction ( X2 ) by the equation:(1) X2=M2S2/S2(M1−M2)+1000ρ, where M1 and M2 are the molar masses of IPN and organic solvent, respectively, and ρ (g∙cm^−3) is the density of the pure solvents. The linear functions describing the temperature dependences of the solubility within the temperature interval from 293.2 ± 0.5 K to 313.2 ± 0.5 K for both organic solvents were derived:(2) lnX2=A+B/T
(§2) The apparent solution enthalpies ΔHsol0 were determined by the van’t Hoff equation:(3) ∂(lnX2)/∂T=ΔHsol0/RT^2
(§3) The apparent dissolution Gibbs energies ( ΔGsol ) and entropies ( ΔSsol ) were calculated at a standard temperature of 298.2 K and 310.2 K:(4) ΔGsol298.2/310.2=−RT(lnX2298.2/310.2) (5) ΔGsol298.2/310.2=ΔHsol0−TΔSsol298.2/310.2 where R is the universal gas constant.

[2] = Shake-flask solubility in n-hexane and dissolution thermodynamics; assay type: physicochemical; conditions: T 310.2 K; value = S2 × 10^3
Procedure: as §1, §2, §3

[3] = Shake-flask distribution in the 1-octanol/buffer pH 7.4 system; assay type: physicochemical; conditions: for Dappoct/buff / logDappoct/buff: 310.2 K, cyclodextrin in buffer phase as in the label; for Molar concentration C2 buf/oct ∙10^3 (aqueous phase) / Molar concentration C2 oct/buf ∙10^3 (organic phase): V(oct):V(buf)= 3:3, molar concentration × 10^3
Procedure: (§4) Apparent distribution coefficients of the compounds were measured in two systems: 1-octanol/buffer pH 7.4 and n-hexane/buffer pH 7.4 by the shake-flask technique at 310.2 ± 0.5 K in the absence (for IPN, INZ and iNAM) and in the presence of cyclodextrins (HP-β-CD and M-β-CD) in the aqueous phase (for IPN only). The concentrations of cyclodextrins were: 0.0115 M, 0.025 M and 0.035 M. The experiments were carried out according to the literature. In brief, the following experimental procedure was performed. Aqueous buffer pH 7.4 and organic solvent (1-octanol or n-hexane) were mixed during 48 h to obtain mutually saturated phases. The stock solutions containing the drug were prepared in buffer pH 7.4 saturated with the organic solvent. Both aliquots of the aqueous stock solution and organic solvent were placed in screwed glass vials and mixed at 310.2 ± 0.5 K during 3 days. The concentrations of the stock solutions were approximately 6.0 × 10^−3 M for both systems. The volumes of the phases were 3:3 in the 1-octanol/buffer pH 7.4 systems and 6:3 and 10:3 in the n-hexane/buffer pH 7.4 systems, without and with cyclodextrins, respectively. After mixing, the equilibrium was achieved; the vials were maintained at 310.2 ± 0.5 K, and the phases were separated from each other. The drug concentrations were determined using spectrophotometer (Cary-50 Varian, Palo Alto, CA, USA, Software Version 3.00 (339)). The experiments were carried out at least four-fold with an accuracy of 2–4%. The distribution coefficients were calculated using the following equation:(6) DappOrg/buf=C2Org/buf⋅V^buf/Org/C2buf/Org⋅V^Org/buf where DappOrg/buf is the distribution coefficient calculated from the concentrations of the compounds expressed in molar scale, C2Org/buf and C2buf/Org are the molar concentrations of the drug in the mutually saturated organic solvent/buffer and buffer/organic solvent phases, respectively, and V^buf/Org and V^Org/buf are the volumes of the saturated buffer and organic solvent phases, respectively. In addition, the ΔlogD parameters were estimated taking into account the distribution coefficients both in the 1-octanol/buffer pH 7.4 and n-hexane/buffer H 7.4 systems. As Abraham et al. stated, the difference between the distribution parameters in these systems ( ΔlogD ) can be applied to assess the specific interactions including a hydrogen-bonding impact to the drug transport properties and can be calculated as follows:(7) ΔlogD=logDappoct/buf−logDapphex/buf

[4] = Shake-flask distribution in the n-hexane/buffer pH 7.4 system; assay type: physicochemical; conditions: for logDapphex/buff / Dapphex/buff ·10^4: 310.2 K; for logDapphex/buff: cyclodextrin in buffer phase as in the label; for Dapphex/buff ·10^4: value = D·10^4, cyclodextrin in buffer phase as in the label; for Molar concentration C2 buf/hex ∙10^3 (aqueous phase): V(hex):V(buf)= 6:3 without and 10:3 with cyclodextrins, molar concentration × 10^3
Procedure: as §4

[5] = ΔlogD parameter (logDapp oct/buf − logDapp hex/buf); assay type: physicochemical; conditions: 310.2 K; pH 7.4; cyclodextrin in buffer phase as in the label
Procedure: as §4, with “The volumes of the phases were 3:3 in the 1-octanol/buffer pH 7.4 systems and 6:3 and 10:3 in the n-hexane/buffer pH 7.4 systems, without and with cyclodextrins, respectively. After mixing, the equilibrium was achieved; the vials were maintained at 310.2 ± 0.5 K, and the phases were separated from each other.” left out, “The experiments were carried out at least four-fold with an accuracy of 2–4%.” left out, “In addition, the ΔlogD parameters were estimated taking into account the distribution coefficients both in the 1-octanol/buffer pH 7.4 and n-hexane/buffer H 7.4 systems.” left out

[6] = set-up: method as in doi:10.1016/j.jct.2015.08.022; conditions: cited from earlier work
[7] = PermeaPad barrier, 310.2 K, cited from earlier work
[8] = Membrane permeability in Franz diffusion cell; assay type: in vitro ADME; conditions: 310.2 K
Procedure: Membrane permeability coefficients of the studied drugs were measured in the Franz diffusion cell of vertical type (PermeGear, Inc., Hellertown, PA, USA) with 7 mL/1 mL volumes of the donor and acceptor solutions through the reverse dialysis set up. The PermeaPad barrier (PHABIOC, Fritz-Souchon-Str.27 32339 Espelkamp Germany, www.innome.de) (0.785 cm^2 effective surface area) was mounted between the donor and acceptor chambers of the diffusion cell. The temperature was maintained at 310.2 ± 0.5 K throughout the experiment. Samples of 0.5 mL were withdrawn each 30 min from the acceptor solution and replaced with an equal amount of fresh buffer. Permeability experiments lasted over five hours in all cases. The solutions concentrations were analyzed via spectrophotometer (Spectramax 190; Molecular Devices Corporation, San Jose, CA, USA) in 96-well UV black plates (Costar) at a wavelength of 264 nm and 266 nm for IPN and INZ/iNAM, respectively. The dependences of the amount of the permeated drug over the surface area (dQ/A) on time (t) were plotted and flux (J) across the membrane was calculated by the equation:(11) J=dQ/A×dt The apparent permeability coefficients (Papp) were determined by normalizing the flux measured over the concentration of the drug in the donor compartment (C0) by the equation:(12) Papp=J/C0 Each permeability experiment was carried out in triplicate.
Similarly to the distribution, the permeability coefficients were obtained in the absence (for IPN, and iNAM) and in the presence of cyclodextrins (HP-β-CD and M-β-CD) (for IPN only) in the donor solution. The concentrations of cyclodextrins were 0.0115 M, 0.025 M and 0.035 M. The permeability coefficient for INZ through the PermeaPad barrier was determined in our previous investigation and taken in the present study for the sake of comparison.

SMILES: NNC(=O)c1ccncc1 [INZ, isonicotinic acid hydrazide]
- solubility higher in 1-octanol than in n-hexane [1]: 130 fold
- Molar solubility S2 × 10^3 in n-Hexane [2]: 1.37 ± 0.05 × 10^3 (M)
- Dappoct/buff [3]: 0.633 ± 0.021
- logDappoct/buff [3]: −0.199
- Molar concentration C2 buf/oct ∙10^3 (aqueous phase) [3]: 5.31 ∙10^3
- Molar concentration C2 oct/buf ∙10^3 (organic phase) [3]: 3.36 ∙10^3
- logDapphex/buff [4]: −3.083
- Dapphex/buff ·10^4 [4]: 8.254 ± 0.188 ·10^4
- Molar concentration C2 buf/hex ∙10^3 (aqueous phase) [4]: 9.54 ∙10^3
- ΔlogD [5]: 2.88
- TΔSsol298.2 ([6]; 1-octanol, 298.2 K): 2.56 kcal/mol
- ΔGsol298.2 ([6]; 1-octanol, 298.2 K): 3.32 kcal/mol
- ΔHsol298.2 ([6]; 1-octanol, 298.2 K): 5.88 kcal/mol
- Molar solubility S2 × 10^1 in 1-Octanol ([6]; T 310.2 K, value = S2 × 10^1): ^a 1.78 ± 0.04 × 10^1 (M)
- Papp∙10^5 ([7]; pH 7.4, value = Papp × 10^5): 1.44±0.08 ∙10^5 (cm∙s‐1)
- permeability coefficient (Papp) ([7]; without cyclodextrins): 14.4 ×10⁻⁶ cm/s

SMILES: NC(=O)c1ccncc1 [iNAM, pyridine-4-carboxylic acid amide]
- solubility higher in 1-octanol than in n-hexane [1]: 115 fold
- Molar solubility S2 × 10^1 in 1-Octanol ([1]; T 310.2 K, value = S2 × 10^1): 1.26 ± 0.02 × 10^1 (M)
- Molar solubility S2 × 10^3 in n-Hexane [2]: 1.10 ± 0.04 × 10^3 (M)
- Dappoct/buff [3]: 0.446 ± 0.013
- logDappoct/buff [3]: −0.351
- Molar concentration C2 buf/oct ∙10^3 (aqueous phase) [3]: 6.33 ∙10^3
- Molar concentration C2 oct/buf ∙10^3 (organic phase) [3]: 2.83 ∙10^3
- logDapphex/buff [4]: −3.241
- Dapphex/buff ·10^4 [4]: 5.742 ± 0.172 ·10^4
- Molar concentration C2 buf/hex ∙10^3 (aqueous phase) [4]: 8.64 ∙10^3
- ΔlogD [5]: 2.89
- steady penetrate rate - flux J∙10^4 ([8]; PermeaPad barrier, pH 7.4, printed value = J × 10^4, cyclodextrin in donor solution as in the label): 0.59 ∙10^4 (μM∙cm‐2∙s‐1)
- Papp∙10^5 ([8]; PermeaPad barrier, pH 7.4, value = Papp × 10^5, cyclodextrin in donor solution as in the label): 0.73±0.04 ∙10^5 (cm∙s‐1)
- Papp at 5 h ([8]; pH 7.4, PermeaPad barrier, without cyclodextrins, read-out: permeability coefficient (Papp)): 7.3 ×10⁻⁶ cm/s
